One compound from patent publication EP2505659A1, “Methods for the identification of dioxygenase interacting molecules and for the purification of dioxygenase proteins” (CELLZOME AG, priority 2011, dated 2012) can be followed below.

What all share (test): Bead competition binding assay, immobilized compound A, K-562, HL-60 and Jurkat nuclear lysates
What all share (settings): 100 µM free compound A, read-out: Fold change versus DMSO control

For one assay, the target named is T1, ALKBH3 (Homo sapiens, UniProt Q96Q83).
T1 construct: capturing and identification of dioxygenases from nuclear protein extracts; endogenous in cells
T1 sequence (Q96Q83 1-286): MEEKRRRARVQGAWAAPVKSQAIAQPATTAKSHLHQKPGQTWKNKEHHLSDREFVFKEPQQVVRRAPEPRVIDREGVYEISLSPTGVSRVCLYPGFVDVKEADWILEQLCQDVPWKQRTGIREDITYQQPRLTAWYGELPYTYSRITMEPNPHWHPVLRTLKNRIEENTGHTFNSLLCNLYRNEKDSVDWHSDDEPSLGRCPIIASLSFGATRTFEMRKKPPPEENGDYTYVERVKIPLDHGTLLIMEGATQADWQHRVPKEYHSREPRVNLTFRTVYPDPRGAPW
An excerpt:
(§1) K562 cells were also purchased from DSMZ (Braunschweig, Germany).
(§2) Table 5: Peptide elution off the LC system

The target in another assay is T2, FTO (Homo sapiens, UniProt Q9C0B1).
T2 construct: endogenous in cells
T2 sequence (Q9C0B1 whole entry): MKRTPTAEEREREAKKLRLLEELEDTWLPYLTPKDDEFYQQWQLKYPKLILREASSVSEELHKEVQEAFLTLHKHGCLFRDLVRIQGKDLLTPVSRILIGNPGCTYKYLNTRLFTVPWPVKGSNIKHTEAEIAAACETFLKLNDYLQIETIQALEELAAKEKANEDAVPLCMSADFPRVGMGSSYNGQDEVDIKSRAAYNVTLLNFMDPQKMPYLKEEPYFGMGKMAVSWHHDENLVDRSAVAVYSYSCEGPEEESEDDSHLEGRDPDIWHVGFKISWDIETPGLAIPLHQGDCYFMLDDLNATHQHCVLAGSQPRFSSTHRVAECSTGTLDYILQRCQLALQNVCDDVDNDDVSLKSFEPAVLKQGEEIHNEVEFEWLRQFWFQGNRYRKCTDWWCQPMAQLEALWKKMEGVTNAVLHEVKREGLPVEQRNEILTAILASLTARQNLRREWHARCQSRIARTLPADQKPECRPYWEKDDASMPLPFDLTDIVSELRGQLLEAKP
From the text: as §1, §2

The target in another assay is T3, LEPREL2 (Homo sapiens, UniProt Q8IVL6).
T3 construct: capturing and identification of dioxygenases from nuclear protein extracts; endogenous in cells
T3 sequence (Q8IVL6 21-736): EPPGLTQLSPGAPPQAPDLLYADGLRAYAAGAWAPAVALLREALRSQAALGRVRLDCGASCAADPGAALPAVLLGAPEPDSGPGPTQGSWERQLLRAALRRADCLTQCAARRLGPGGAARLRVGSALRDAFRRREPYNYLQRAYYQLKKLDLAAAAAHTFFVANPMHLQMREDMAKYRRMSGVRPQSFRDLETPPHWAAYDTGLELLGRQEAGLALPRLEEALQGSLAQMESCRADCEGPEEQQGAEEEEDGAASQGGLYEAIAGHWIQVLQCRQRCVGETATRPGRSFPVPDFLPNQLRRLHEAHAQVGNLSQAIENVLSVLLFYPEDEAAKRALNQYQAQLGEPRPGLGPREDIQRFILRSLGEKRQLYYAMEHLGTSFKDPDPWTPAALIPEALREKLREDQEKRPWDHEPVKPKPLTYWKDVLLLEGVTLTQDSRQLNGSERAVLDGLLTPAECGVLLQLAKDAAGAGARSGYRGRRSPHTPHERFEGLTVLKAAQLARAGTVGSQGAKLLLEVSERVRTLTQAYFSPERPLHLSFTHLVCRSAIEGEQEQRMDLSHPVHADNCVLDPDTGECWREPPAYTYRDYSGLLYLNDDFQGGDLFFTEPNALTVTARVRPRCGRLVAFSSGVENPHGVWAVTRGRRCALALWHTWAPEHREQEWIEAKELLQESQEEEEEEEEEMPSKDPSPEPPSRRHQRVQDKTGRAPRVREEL
From the text: as §1, §2

In a further assay the target is T4, PLOD1 (Homo sapiens, UniProt Q02809).
T4 construct: capturing and identification of dioxygenases from nuclear protein extracts; endogenous in cells
T4 sequence (Q02809 19-727): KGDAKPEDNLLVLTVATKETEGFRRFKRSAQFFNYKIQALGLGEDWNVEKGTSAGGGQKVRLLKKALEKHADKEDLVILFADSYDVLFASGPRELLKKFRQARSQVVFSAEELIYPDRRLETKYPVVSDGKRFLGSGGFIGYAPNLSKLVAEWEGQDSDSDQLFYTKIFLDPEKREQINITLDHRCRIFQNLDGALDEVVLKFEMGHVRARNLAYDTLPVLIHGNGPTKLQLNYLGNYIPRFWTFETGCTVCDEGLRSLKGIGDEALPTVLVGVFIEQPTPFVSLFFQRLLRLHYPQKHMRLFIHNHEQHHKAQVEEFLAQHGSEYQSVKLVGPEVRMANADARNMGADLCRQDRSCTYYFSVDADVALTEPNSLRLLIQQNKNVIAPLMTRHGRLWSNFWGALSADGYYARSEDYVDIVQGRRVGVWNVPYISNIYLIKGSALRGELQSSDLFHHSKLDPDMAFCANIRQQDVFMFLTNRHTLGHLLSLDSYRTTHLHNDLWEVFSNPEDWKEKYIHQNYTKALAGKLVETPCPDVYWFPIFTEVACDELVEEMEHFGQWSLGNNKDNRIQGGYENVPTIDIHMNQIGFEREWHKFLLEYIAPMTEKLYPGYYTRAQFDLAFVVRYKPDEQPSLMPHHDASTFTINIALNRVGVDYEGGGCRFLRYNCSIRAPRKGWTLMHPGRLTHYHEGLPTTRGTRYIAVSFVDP
From the text: as §1, §2

For another assay, the target named is T5, PLOD3 (Homo sapiens, UniProt O60568).
T5 construct: capturing and identification of dioxygenases from nuclear protein extracts; endogenous in cells
T5 sequence (O60568 25-738): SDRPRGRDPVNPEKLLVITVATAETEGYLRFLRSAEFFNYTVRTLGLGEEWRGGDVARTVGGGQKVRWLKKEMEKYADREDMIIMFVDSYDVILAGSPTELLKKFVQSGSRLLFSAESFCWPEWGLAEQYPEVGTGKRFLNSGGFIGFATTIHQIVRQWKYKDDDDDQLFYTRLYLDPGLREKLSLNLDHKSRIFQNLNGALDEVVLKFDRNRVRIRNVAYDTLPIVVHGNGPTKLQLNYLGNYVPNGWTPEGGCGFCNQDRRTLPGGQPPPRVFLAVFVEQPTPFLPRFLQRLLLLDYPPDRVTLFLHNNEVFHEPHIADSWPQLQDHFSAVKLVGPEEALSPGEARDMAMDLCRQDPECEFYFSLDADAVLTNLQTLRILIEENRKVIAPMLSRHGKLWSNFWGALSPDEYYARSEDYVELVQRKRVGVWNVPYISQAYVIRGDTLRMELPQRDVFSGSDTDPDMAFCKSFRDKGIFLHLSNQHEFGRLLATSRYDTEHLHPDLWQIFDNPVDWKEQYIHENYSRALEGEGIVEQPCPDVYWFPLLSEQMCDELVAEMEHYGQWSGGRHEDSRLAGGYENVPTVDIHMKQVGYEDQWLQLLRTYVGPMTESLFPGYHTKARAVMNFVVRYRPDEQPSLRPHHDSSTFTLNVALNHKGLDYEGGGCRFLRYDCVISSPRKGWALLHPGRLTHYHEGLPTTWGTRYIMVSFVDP
From the text: as §1, §2

Counter-ions that a name gives are not always drawn. Like-named read-outs stand apart in the source and are kept apart here.

Regarding `O=C(O)CNC(=O)C1C(=O)OC2(CCNCC2)OC1=O` [compound A, 2-(2,4-dioxo-1,5-dioxa-9-azaspiro[5.5]undecane-3-carboxamido)acetic acid hydrochloride], the remaining binding at 100 µM on ALKBH3 (HL-60 nuclear lysate) is 36%; on ALKBH3 (Jurkat nuclear lysate), 32%; at FTO (Jurkat nuclear lysate), 8%; at FTO (K-562 nuclear lysate) it was 19%; on LEPREL2 (Jurkat nuclear lysate), 9%; on LEPREL2 (K-562 nuclear lysate), 25%. Further, the remaining binding at 100 µM on PLOD1 (Jurkat nuclear lysate) was 91%; on PLOD1 (K-562 nuclear lysate), 35%; on PLOD3 (Jurkat nuclear lysate) it was 161%; at PLOD3 (K-562 nuclear lysate), 52%.
